Test system: M. bovis BCG resistant mutants
Format: cell-based, Mycobacterium bovis BCG

Row | Compound | viability of M. bovis BCG mutants raised against other IP family members
1 | Cc1ccc2nc(C)c(C(=O)NCc3cccs3)n2c1 [IP 1] | viable
2 | Cc1ccc2nc(C)c(C(=O)NCc3ccc(C(F)(F)F)cc3)n2c1 [IP 3, 2,6-Dimethyl-N-(4-(trifluoromethyl)benzyl)imidazo[1,2-a]pyridine-3-carboxamide] | viable
3 | Cc1ccc2nc(C)c(C(=O)NCc3ccc(Cl)nc3)n2c1 [IP 4, N-((6-Chloropyridin-3-yl)methyl)-2,6-dimethylimidazo[1,2-a]pyridine-3-carboxamide] | viable

Reference: paper PMC3534098 (PLoS ONE, 2012)
